The text below walks through data of article PMC2729980 (Planta, 2009).

In the test the target is T1, DkFGT (GST-DkFGT) (Diospyros kaki, UniProt C8KH59).
T1 sequence (C8KH59 1-459): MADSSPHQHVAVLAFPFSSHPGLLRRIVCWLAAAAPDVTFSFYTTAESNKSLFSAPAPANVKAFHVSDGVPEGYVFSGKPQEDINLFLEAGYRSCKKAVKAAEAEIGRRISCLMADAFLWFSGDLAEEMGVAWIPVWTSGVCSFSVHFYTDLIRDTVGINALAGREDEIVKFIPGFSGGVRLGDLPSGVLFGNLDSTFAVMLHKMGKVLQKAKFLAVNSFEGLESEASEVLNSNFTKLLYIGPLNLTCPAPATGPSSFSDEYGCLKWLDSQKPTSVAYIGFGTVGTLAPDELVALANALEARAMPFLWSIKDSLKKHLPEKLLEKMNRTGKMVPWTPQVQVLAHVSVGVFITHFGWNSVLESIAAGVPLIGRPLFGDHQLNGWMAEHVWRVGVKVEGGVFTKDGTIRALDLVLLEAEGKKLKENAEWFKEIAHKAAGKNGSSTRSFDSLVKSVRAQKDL
Briefly: biochemical.

Turning to `Oc1ccc(-c2[o+]c3cc(O)cc(O)c3cc2O)cc1` [pelargonidin], the Michaelis-Menten constant (Km) (in general, the substrate concentration at which the rate is half of its maximum) is 186 µM.

`O=c1c(O)c(-c2ccc(O)cc2)oc2cc(O)cc(O)c12` [kaempferol]: the Michaelis constant (Km) worked out at 143 µM.
